US10471043B2, “Compounds and methods of treating bacterial infections” (ULTUPHARMA AB, priority 2015, dated 2019)
≈ marks a conversion by molar mass, not a printed value. Like-named read-outs stand apart in the source and are kept apart here.

Experiments:
[1] = test system: K. pneumoniae; assay: MIC panel of Gram-negative bacteria (Table 7); type: cell-based; conditions: Klebsiella pneumoniae
[2] = test system: Enterobacter aerogenes; assay: MIC panel of Gram-negative bacteria (Table 7); type: cell-based; conditions: Klebsiella aerogenes; EN0461 Enterobacter aerogenes G− PKL 3706
[3] = test system: E. faecium; assay: Antimicrobial Susceptibility Test by Broth Microdilution, M07-A9 CLSI; type: cell-based
[4] = in vitro; conditions: human, Caco-2
[5] = test system: E. coli; assay: MIC panel of Gram-negative bacteria (Table 7); type: cell-based; conditions: Escherichia coli
[6] = test system: Serratia marescens; assay: MIC panel of Gram-negative bacteria (Table 7); type: cell-based; conditions: EN0454 Serratia marescens G− PKL 3692
[7] = test system: A. baumanii; assay: MIC panel of Gram-negative bacteria (Table 7); type: cell-based
[8] = test system: HepG2 cells; conditions: human, 48 h
[9] = test system: S. pyogenes; assay: Antimicrobial Susceptibility Test by Broth Microdilution, M07-A9 CLSI; type: cell-based; conditions: Streptococcus pyogenes
[10] = in vitro; conditions: human, CC50 (μg/mL)
[11] = test system: S. epidermidis; assay: MIC panel of Gram-negative bacteria (Table 7); type: cell-based; conditions: Staphylococcus epidermidis; EN0456 S. epidermidis G+ PKL 3694
[12] = test system: Micrococcus luteus; assay: MIC panel of Gram-negative bacteria (Table 7); type: cell-based; conditions: EN0455 Micrococcus luteus G+ PKL 3693
[13] = test system: S. pneumoniae; assay: Antimicrobial Susceptibility Test by Broth Microdilution, M07-A9 CLSI; type: cell-based; conditions: Streptococcus pneumoniae
[14] = test system: A. baumannii; assay: MIC by broth micro-dilution; type: cell-based; conditions: A. baumannii (G−), Table 2
Protocol: (§1) At first (Table 1), MIC is determined by broth micro-dilution method. The test medium is Antibiotic Medium 3 (AM3; Difco Ltd) mixed with Phosphate Buffered Saline (PBS) in proportions 1:1. Selected MIC values are verified using cation-adjusted Mueller Hinton Broth (MHB; BD). Cell concentration of tested pathogen is adjusted to between 3 and 5×10^5 cells per ml. To verify cell concentration of tested pathogen, viable cell counts are performed directly after each MIC-test by dilution method with PBS as a dilution solvent. Cells are counted on the agar plates with 50% strength Vegetable Peptone Broth (50% VPB; Oxoid Ltd) after 16 to 20 h of incubation at 37° C.
(§2) Cells of pathogen suspended in test medium are distributed to the wells and the plates are incubated for 16 to 20 h at 37° C. Negative controls are wells with the test medium only and positive controls are wells with the pathogen in test medium. The MIC is defined as the lowest concentration of each compound with no visible growth of pathogen.

[15] = test system: M. frederiksbergense; assay: MIC by broth micro-dilution; type: cell-based; conditions: Table 4; read-out: MIC (μg/ml) M. frederiksbergense
Protocol: as §1, §2

[16] = test system: Bacillus cereus; assay: MIC by broth micro-dilution; type: cell-based; conditions: Table 4, read-out: MIC (μg/ml) B. cereus
Protocol: as §1, §2

[17] = test system: mupirocin-resistant strains of Staphylococcus aureus; assay: MIC against mupirocin-resistant strains; type: cell-based; conditions: Staphylococcus aureus; S. aureus V55, mupirocin-resistant; read-out: MIC
Protocol: as §1, §2

[18] = test system: S. aureus; assay: Antimicrobial Susceptibility Test by Broth Microdilution, M07-A9 CLSI; type: cell-based; conditions: Staphylococcus aureus
[19] = test system: S. epidermidis; assay: as above; type: cell-based; conditions: Staphylococcus epidermidis
[20] = test system: A. Pittii/nosocomialis; assay: MIC panel of Gram-negative bacteria (Table 7); type: cell-based; conditions: Acinetobacter pittii; EN0180 A. Pittii/nosocomialis G−
[21] = test system: P. aeruginosa; assay: MIC panel of Gram-negative bacteria (Table 7); type: cell-based; conditions: Pseudomonas aeruginosa
[22] = test system: Citrobacter sp.; assay: MIC panel of Gram-negative bacteria (Table 7); type: cell-based; conditions: EN0465 Citrobacter sp. G− PKL 3710
[23] = test system: Proteus mirabilis; assay: MIC panel of Gram-negative bacteria (Table 7); type: cell-based
[24] = test system: Staphylococcus aureus strain LMG15975; assay: MIC by broth micro-dilution, AM3/PBS 1:1; type: cell-based
Protocol: as §1, §2
Example compounds of formula I were examined for antibacterial activity against the Gram-positive bacterium Staphylococcus aureus strain LMG15975 using the above described method (Table 1).

In the case of CCCCCCCCCC1CC(O)=C(C(=O)CCC)C(=O)O1 (stereo not shown) [Ex. 1, 3-Butyryl-6-nonyl-4-hydroxy-5,6-dihydro-2H-pyran-2-one], the MIC ([1]; EN006 K. pneumoniae WT, ENABLE Primary MIC panel) is reported as greater than 64 µg/mL, the MIC ([1]; EN0010 K. pneumoniae, ENABLE L2C MIC panel (isogenic efflux pairs)) is reported as greater than 64 µg/mL and the MIC ([1]; EN0011 K. pneumoniae Efflux mut, ENABLE L2C MIC panel) is reported as 8 µg/mL (≈ 25.8 µM). The MIC [2] was greater than 64 µg/mL, the “MIC” value ([3]; E. faecium E.coc 7, Vancomycin -resistant, Table 6) was 2 µg/mL (≈ 6.44 µM) and the MIC ([3]; Enterococcus faecium, E. faecium 7, Vancomycin-resistant, Table 5, read-out: MIC) was 2 µg/mL (≈ 6.44 µM). For the same compound, the Papp at 120 min, 10 μM [4] was 53 ×10⁻⁶ cm/s, the MIC ([5]; EN001 E. coli WT, ENABLE Primary MIC panel) was greater than 64 µg/mL and the MIC ([5]; EN002 E. coli DtolC, ENABLE Primary MIC panel) was 4 µg/mL (≈ 12.9 µM). For the same compound, the MIC ([5]; EN003 E. coli D22 (lps mut), ENABLE Primary MIC panel) was greater than 64 µg/mL, the MIC ([5]; EN0012 E. coli, ENABLE L2C MIC panel) was greater than 64 µg/mL and the MIC ([5]; EN0013 E. coli Del-tolC, ENABLE L2C MIC panel) was 0.5 µg/mL (≈ 1.61 µM). It also gave an MIC ([5]; EN0458 E. coli B G− PKL 3698) greater than 64 µg/mL, an MIC [6] greater than 64 µg/mL and an MIC ([7]; Acinetobacter baumannii, EN007 A. baumanii WT, ENABLE Primary MIC panel, read-out: MIC) greater than 64 µg/mL. It also gave an MIC ([7]; EN0016 A. baumanii, ENABLE L2C MIC panel) greater than 64 µg/mL, an MIC ([7]; EN0017 A. baumanii Efflux mut, ENABLE L2C MIC panel) greater than 64 µg/mL and a CC50 [8] of 38 µM. It also gave an MIC ([9]; S. pyogenes 2 Finland, Macrolide-resistant (M)) of 8 µg/mL (≈ 25.8 µM), an MIC ([9]; S. pyogenes 29A-TF, Macrolide- sensitive) of 8 µg/mL (≈ 25.8 µM) and an MIC ([9]; S. pyogenes 21 Finland, Macrolide-resistant (MLSc)) of 8 µg/mL (≈ 25.8 µM). For the same compound, the CC50 at 48 h [10] was 33 µM, the MIC [11] was 1 µg/mL (≈ 3.22 µM) and the MIC [12] was 0.5 µg/mL (≈ 1.61 µM). It also gave an MIC ([13]; ATCC49619, S. pneumoniae ATCC 49619, QC strain) of 4 µg/mL (≈ 12.9 µM), an MIC ([13]; BAA1407, S. pneumoniae BAA1407, Macrolide-resistant (M + MLS)) of 8 µg/mL and an MIC ([13]; S. pneumoniae 19A-TN, Quinolone-sensitive) of 8 µg/mL (≈ 25.8 µM). The MIC ([13]; S. pneumoniae 158bg, Macrolide-resistant (M)) was 4 µg/mL (≈ 12.9 µM), the MIC ([13]; S. pneumoniae 956, Macrolide-resistant (MLSc)) was 4 µg/mL (≈ 12.9 µM) and the MIC ([13]; S. pneumoniae SP030, Macrolide- sensitive) was 8 µg/mL (≈ 25.8 µM). The MIC ([13]; S. pneumoniae TE 122-024, Quinolone-resistant) was 8 µg/mL (≈ 25.8 µM), the MIC ([13]; S. pneumoniae TE 122-026, Tetracycline-resistant) was 4 µg/mL (≈ 12.9 µM) and the “MIC (μg/ml) A. baumannii” value [14] was 8 to 16 µg/mL. The MIC ([14]; Acinetobacter baumannii, read-out: MIC (μg/ml) A. baumannii) was 16 to 24 µg/mL (≈ 51.5 to 77.3 µM), the MIC [15] was no more than 0.5 µg/mL and the MIC [16] was no more than 1 µg/mL. For the same compound, the MIC [17] was no more than 0.1 µg/mL, the MIC ([18]; ATCC29213, S. aureus ATCC29213, QC strain, Table 5) was 4 µg/mL (≈ 12.9 µM) and the MIC ([18]; ATCC29213, S. aureus ATCC 29213, QC strain, Table 6) was 4 µg/mL (≈ 12.9 µM). The MIC ([18]; MRSA, S. aureus PICI, Table 6) was 4 µg/mL (≈ 12.9 µM), the MIC ([18]; MSSA, S. aureus MO 17, MSSA, Table 6) was 2 µg/mL (≈ 6.44 µM) and the MIC ([18]; S. aureus 6 Holland, Macrolide-resistant (M)) was 1 µg/mL (≈ 3.22 µM). For the same compound, the MIC ([18]; S. aureus 56 Japan, Macrolide-resistant (MLSi)) was 4 µg/mL (≈ 12.9 µM), the MIC ([18]; S. aureus 853E, Macrolide-sensitive) was 2 µg/mL (≈ 6.44 µM) and the MIC ([18]; S. aureus 4216, Tetracycline-resistant) was 2 µg/mL (≈ 6.44 µM). For the same compound, the MIC ([18]; S. aureus 4384 (SSI), Methicillin-resistant) was 2 µg/mL (≈ 6.44 µM), the MIC ([18]; S. aureus FR 131, Quinolone-resistant) was 2 µg/mL (≈ 6.44 µM) and the MIC ([18]; S. aureus MO17, Methicillin-sensitive, Table 5) was 2 µg/mL (≈ 6.44 µM). For the same compound, the MIC ([18]; S. aureus PICI, Methicillin-resistant, Table 5) was 4 µg/mL (≈ 12.9 µM), the MIC ([18]; S. aureus PK2, Macrolide-resistant (MLSc)) was 2 µg/mL (≈ 6.44 µM) and the MIC ([19]; MRSE, S. epidermidis TA12, MRSE, Table 6) was 2 µg/mL (≈ 6.44 µM). The MIC ([19]; S. epidermidis RO7, MSSE, Table 6) was 1 µg/mL (≈ 3.22 µM), the MIC ([19]; S. epidermis RO7, Methicillin-sensitive, Table 5) was 1 µg/mL (≈ 3.22 µM) and the MIC ([19]; S. epidermis TA12, Methicillin-resistant, Table 5) was 2 µg/mL (≈ 6.44 µM). The MIC [20] was greater than 64 µg/mL, the MIC ([21]; EN004 P. aeruginosa WT, ENABLE Primary MIC panel) was greater than 64 µg/mL and the MIC ([21]; EN005 P. aeruginosa Efflux mut, ENABLE Primary MIC panel) was 2 µg/mL (≈ 6.44 µM). For the same compound, the MIC ([21]; EN0014 P. aeruginosa, ENABLE L2C MIC panel) was greater than 64 µg/mL, the MIC ([21]; EN0015 P. aeruginosa Efflux mut, ENABLE L2C MIC panel) was greater than 64 µg/mL and the MIC ([21]; EN0422 P. aeruginosa G−) was greater than 64 µg/mL. It also gave an MIC ([21]; EN0459 P. aeruginosa G− PKL 3699) greater than 64 µg/mL, an MIC ([21]; EN0460 P. aeruginosa G− PKL 3704) greater than 64 µg/mL and an MIC [22] greater than 64 µg/mL. For the same compound, the MIC ([23]; EN0445 P. mirabilis ST19 G−) was greater than 64 µg/mL, the MIC ([23]; EN0457 Proteus mirabilis G− PKL 3695, read-out: MIC) was greater than 64 µg/mL and the MIC ([24]; LMG15975, S. aureus (G+), Table 2, read-out: MIC (μg/ml) S. aureus) was 0.8 µg/mL. It also gave an MIC ([24]; LMG15975, S. aureus LMG 15975 (SLU), Methicillin-resistant, Table 5, read-out: MIC (μg/mL)) of 0.8 µg/mL, an MIC ([24]; LMG15975, S. aureus LMG15975, Table 1, read-out: MIC) of 2.5 µM and an MIC ([24]; LMG15975, S. aureus LMG15975, Table 1, read-out: MIC (μg/ml)) of 0.8 µg/mL. For the same compound, the MIC ([24]; LMG15975, Table 4, read-out: MIC (μg/ml) S. aureus) was 0.8 µg/mL.
